In US10864212B2, “Compositions and methods for treating retinal degradation” (University of Kentucky Research Foundation, priority 2013, dated 2020):
“Also recorded” adds a separate entry of the source.

Experiments:
IL-1 beta = test: LPS/nigericin-induced IL-1 beta maturation in mouse bone marrow-derived macrophages (Western blot); assay type: cell-based; conditions: d4T 100, 250 uM, FIG. 10
Excerpt: (§1) To produce FIG. 10, cell culture supernatants were collected after (i) no treatment, (ii) LPS treatment, or (iii) LPS/nigericin treatment of mouse bone marrow-derived macrophages and run on Western blotting probing with antibodies for IL-1 beta and Caspase-1.
(§2) Cell culture supernatants were collected after (i) no treatment, (ii) LPS treatment, or (iii) LPS/nigericin treatment of mouse bone marrow-derived macrophages, and run on Western blotting probing with antibodies for IL-1 beta and Caspase-1.

[1] = system: GFP-expressing lentivirus; test: Replication of a GFP-expressing lentivirus in HeLa cells; assay type: cell-based; conditions: HeLa cells; FIG. 22
Excerpt: (§3) The present disclosure further provides the results of additional experiments in FIG. 21-FIG. 23.

HeLa cells = test: MTS proliferation assay of HeLa cells treated with Alu RNA expression plasmid (pAluA); assay type: cell-based, human; conditions: pAluA vs pUC19, d4T co-administration, FIG. 2
Caspase-1 [2] = test: LPS/nigericin-induced Caspase-1 activation in mouse bone marrow-derived macrophages (Western blot); assay type: cell-based; conditions: d4T 100, 250 uM, FIG. 10
Excerpt: as §1, §2

[3] = system: mitochondrial reactive oxygen species (mtROS); test: MitoSox assay of mitochondrial ROS in primary human RPE cells with Alu expressing plasmid; assay type: cell-based; conditions: pAluA vs pUC19, after 15 hours, FIG. 15, 54
Description: After 15 hours cells were co-stained for mtROS (red) and for cell count, nuclei (blue; Hoechst DNA stain).
In FIG. 54, mitochondrial reactive oxygen species (ROS) were visualized with MitoSox (Red) and cell nuclei with Hoechst (Blue).

RPE degeneration = test: Alu RNA-induced RPE degeneration in wild type mice, d4T co-delivered to the vitreous humor; assay type: in vivo, mouse; conditions: sub-retinal Alu RNA, increasing amounts, one week after delivery, FIG. 1
Excerpt: Arrows denote depigmented regions of RPE cell death, which resolve at highest dose of d4T.

IRAK4 [4] = test: LPS/ATP-induced IRAK4 phosphorylation in primary human RPE cells; assay type: cell-based; conditions: d4T 25/100 uM, FIG. 8
Excerpt: Vinculin was used as the loading control in the gel of FIG. 8. Additionally, as shown, LPS and ATP activate the NLRP3 inflammasome only in combination.
The loading control in FIG. 8 is vinculin. Furthermore, as shown, LPS and ATP activate the NLRP3 inflammasome only in combination, thus treatment with one or the other alone is useful as a control for this experiment.

human P2X7 receptor = target: T1, human P2X7 receptor (Homo sapiens, UniProt Q99572); test: bzATP-induced YO-PRO-1 dye uptake in HEK293 cells stably expressing the human P2X7 receptor; assay type: cell-based
T1 construct: expressed in transfected cells
T1 sequence (Q99572 1-595): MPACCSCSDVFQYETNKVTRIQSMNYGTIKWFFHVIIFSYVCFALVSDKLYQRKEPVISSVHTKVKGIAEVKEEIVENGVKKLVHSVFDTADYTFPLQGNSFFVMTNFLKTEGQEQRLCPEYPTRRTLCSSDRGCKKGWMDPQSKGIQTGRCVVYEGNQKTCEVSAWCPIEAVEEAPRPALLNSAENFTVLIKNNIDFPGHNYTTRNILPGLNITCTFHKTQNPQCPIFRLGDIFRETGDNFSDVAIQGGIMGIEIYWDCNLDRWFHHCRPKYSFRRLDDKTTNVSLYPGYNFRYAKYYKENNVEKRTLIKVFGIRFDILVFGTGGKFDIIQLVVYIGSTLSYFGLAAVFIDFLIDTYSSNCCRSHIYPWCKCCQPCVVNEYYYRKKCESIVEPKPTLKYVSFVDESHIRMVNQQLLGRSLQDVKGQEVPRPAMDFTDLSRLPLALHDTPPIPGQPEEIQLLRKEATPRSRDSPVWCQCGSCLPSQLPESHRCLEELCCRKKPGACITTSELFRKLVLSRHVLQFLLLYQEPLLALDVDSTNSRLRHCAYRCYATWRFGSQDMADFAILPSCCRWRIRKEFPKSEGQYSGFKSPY
Excerpt: Finally, P2X7 activation is associated with the formation of a large pore that is permeable to molecules of up to ˜1000 Da (Adinolfi et al., 2005; Cheewatrakoolpong et al., 2005; Surprenant et al., 1996).

mtDNA = mtDNA levels in primary mouse RPE cells by real-time quantitative PCR; assay type: cell-based
Excerpt: as §3

ATP release = ATP release induced by Alu RNA from primary human RPE cells (ATP-dependent luciferase assay); assay type: cell-based; conditions: cell culture supernatant, FIG. 16, 42
Excerpt: Cell culture supernatant was collected from mock or Alu RNA treated cells, with or without d4T, and ATP was detected using an ATP-dependent luciferase assay.
(FIG. 16) Primary human RPE cells treated with Alu RNA for the times indicated release ATP. […] ATP was detected using an ATP-dependent luciferase assay.

NLRP3 mRNA = test: NLRP3 priming (mRNA) induced by Alu RNA in primary human RPE cells; assay type: cell-based; conditions: Alu RNA transfection, 16 hours, d4T 100 uM, FIG. 13
Description: Indeed, as provided in the bar graph of FIG. 13, Alu RNA transfection increases NLRP3 mRNA levels in primary human RPE cells at 16 hours, an event termed “priming” (Y-axis) compared to mock (transfection reagent alone).

IRAK4 [5] = test: Western blot of IRAK4 phosphorylation in primary mouse RPE cells transfected with Alu RNA; assay type: cell-based; conditions: FIG. 44
IRAK4 [6] = test: Western blot of IRAK4 phosphorylation in primary human RPE cells transfected with Alu RNA; assay type: cell-based; conditions: FIG. 34
Excerpt: Alu RNA mediates RPE cell death via activation of Caspase 1 and the NLRP3 inflammasome (Tarallo et al., 2012).

IL-1 beta mRNA = test: IL-1beta priming (mRNA) induced by Alu RNA in primary human RPE cells; assay type: cell-based; conditions: Alu RNA transfection, 24 hours, d4T 100 uM, FIG. 14
Description: FIG. 14 illustrates, in graph format, that Alu RNA transfection increases IL-1 beta mRNA levels in primary human RPE cells at 24 hours, an event termed “priming”, (Y-axis) compared to mock (transfection reagent alone).
FIG. 14 illustrates that Alu RNA transfection increases IL-1 beta mRNA levels in primary human RPE cells at 24 hours, an event termed “priming”, (Y-axis) compared to mock (transfection reagent alone).

Caspase-1 [7] = test: Western blot of Caspase-1 activation in primary mouse RPE cells transfected with Alu RNA; assay type: cell-based; conditions: FIG. 44
[8] = system: graft-versus-host disease; test: Graft-versus-host disease model, mice receiving allogeneic bone marrow and T cells; assay type: in vivo, mouse; conditions: saline treated controls 0%
Excerpt: To explore the potential therapeutic relevance of NRTIs beyond the Alu-induced model of geographic atrophy (GA), it was hypothesized that if NRTIs function as generic inflammasome inhibitors, then they might be broadly useful in other animal models of disease that are also driven by P2X7.

Cc1cn([C@H]2C=C[C@@H](CO)O2)c(=O)[nH]c1=O [d4T, 2′3′ dideoxythymidine]
IL-1 beta maturation (18 and 22 kDa forms) induced by nigericin (IL-1 beta): inhibits | Replication of a GFP-expressing lentivirus [1]: blocks replication of a GFP-expressing lentivirus | Cell viability / cell death induced by Alu overexpression (MTS) (HeLa cells): prevented cell death induced by Alu overexpression | Caspase-1 activation (active p20 band) induced by nigericin (Caspase-1 [2]): inhibits | Mitochondrial ROS (mtROS) caused by Alu expression (MitoSox) [3]: blocks mitochondrial ROS (mtROS) production; also recorded: reduces mitochondrial ROS caused by Alu expression; also recorded: prevents pAlu-induced mitochondrial ROS generation | Alu RNA-induced RPE degeneration / RPE cell death (fundus photographs, ZO-1 flat mounts) (RPE degeneration): prevents Alu RNA-induced RPE cell death in a dose-dependent manner; also recorded: restored to healthy RPE morphology/intercellular junctions at highest dose of d4T | IRAK4 phosphorylation induced by LPS/ATP (IRAK4 [4]): blocks | YO-PRO-1 iodide entry stimulated with bzATP (human P2X7 receptor; HEK293 human P2X7, pre-incubated 30 minutes, fluorescence 485/515 nm at t=30 minutes, FIG. 19): blocked YO-PRO-1 iodide entry | P2X7-mediated YO-PRO-1 dye uptake (fluorescence) induced by bzATP (human P2X7 receptor; bzATP 100 μM, 64 μM for both drugs, p<0.05, n=12, FIG. 43): inhibited | P2X7-dependent uptake of YO-PRO1 after addition of bzATP (human P2X7 receptor; human P2X7-overexpressing HEK293 stable cell line, concentration not given): inhibited P2X7-dependent uptake of the fluorescent dye YO-PRO1 | mtDNA levels (normalized to chromosomal DNA exon-intron junction sequence) (mtDNA): reduces mtDNA levels | ATP release induced by Alu RNA (ATP release): does not block release of ATP; also recorded: did not affect ATP release; also recorded: does not block Alu-induced ATP release | NLRP3 mRNA levels (priming), normalized to 18S RNA (NLRP3 mRNA): blunted | IRAK4 phosphorylation (IRAK4 [5]): blocks phosphorylation of IRAK4 | IRAK4 phosphorylation (IRAK4 [6]): blocks phosphorylation of IRAK4 | IL-1 beta mRNA levels (priming), normalized to 18S RNA (IL-1 beta mRNA): blunted | Caspase 1 cleavage to its active 20 kDa form (Caspase-1 [7]): prevents Caspase 1 cleavage to its active 20 kDa form | Survival [8]: 30-70%
